Activity calls are given as the source filed them. No cut-off for these calls is given here.
Key:
[1] = molecular target: Ras-related C3 botulinum toxin substrate 1 (Mus musculus, UniProt P63001); experiment: Inhibition of Rac1 activation in mouse NIH/3T3 cells lysates pre-incubated for 1 hr before addition of Rac activator stimulation by immunoblot analysis based pull-down assay relative to control; assay type: subcellular, Lysate
[2] = molecular target: Ras-related C3 botulinum toxin substrate 1 (Mus musculus) (UniProt P63001); experiment: Inhibition of mouse Rac1 assessed as decrease in B-max for GTP-binding on Rac1 by mant-GTP binding kinetics real-time assay
[3] = molecular target: Ras-related C3 botulinum toxin substrate 1 (Mus musculus) (UniProt P63001); experiment: Inhibition of Rac1 in mouse NIH/3T3 cells assessed as reduction in Rac activator-stimulated cell migration incubated for 24 hrs; assay type: cell-based
[4] = molecular target: Ras-related C3 botulinum toxin substrate 1 (Mus musculus) (UniProt P63001); experiment: Inhibition of Rac1 in mouse airways smooth muscle cells assessed as reduction in methacholine-induced maximal contraction pre-incubated for 1 hrs before methacholine addition
[5] = molecular target: Ras-related C3 botulinum toxin substrate 1 (Mus musculus) (UniProt P63001); experiment: Binding affinity to mouse Rac1 by SPR assay
[6] = molecular target: Rho-related GTP-binding protein RhoG (Mus musculus) (UniProt P84096); experiment: Inhibition of mouse RhoG assessed as decrease in B-max for GTP-binding on Rac1 by mant-GTP binding kinetics real-time assay
Sequence of Rho-related GTP-binding protein RhoG (Mus musculus) (P84096 whole entry): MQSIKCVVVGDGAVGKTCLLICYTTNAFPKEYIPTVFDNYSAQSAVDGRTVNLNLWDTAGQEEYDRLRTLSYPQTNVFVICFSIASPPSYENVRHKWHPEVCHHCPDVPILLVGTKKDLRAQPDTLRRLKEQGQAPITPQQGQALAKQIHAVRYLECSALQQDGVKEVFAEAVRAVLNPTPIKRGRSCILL

Mus musculus = experiment: Suppression of airway hyperresponsiveness in mouse model of percutaneous sensitization and house dust mite extract intranasal challenge-induced human allergic asthma dosed via nebulization 10 mins before methacholine challenge; assay type: functional, organism-based
[7] = molecular target: Ras-related C3 botulinum toxin substrate 1 (Mus musculus) (UniProt P63001); experiment: Inhibition of Rac1 activation in mouse NIH/3T3 cells lysates pre-incubated for 1 hr before addition of Rac activator stimulation by immunoblot analysis based pull-down assay; assay type: subcellular; details: Lysate
[8] = molecular target: Ras-related C3 botulinum toxin substrate 2 (Mus musculus) (UniProt Q05144); experiment: Inhibition of mouse Rac2 assessed as decrease in B-max for GTP-binding on Rac1 by mant-GTP binding kinetics real-time assay
[9] = molecular target: Transforming protein RhoA (Mus musculus) (UniProt Q9QUI0); experiment: Binding affinity to mouse RhoA by SPR assay
Sequence of Transforming protein RhoA (Mus musculus) (Q9QUI0 whole entry): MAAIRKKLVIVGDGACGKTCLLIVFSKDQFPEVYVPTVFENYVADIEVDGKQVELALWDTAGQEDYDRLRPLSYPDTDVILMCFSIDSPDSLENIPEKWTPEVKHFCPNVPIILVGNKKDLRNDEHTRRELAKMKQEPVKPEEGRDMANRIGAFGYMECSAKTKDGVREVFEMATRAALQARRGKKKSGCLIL

[10] = molecular target: Transforming protein RhoA (Mus musculus) (UniProt Q9QUI0); experiment: Inhibition of mouse RhoA assessed as decrease in B-max for GTP-binding on Rac1 by mant-GTP binding kinetics real-time assay
[11] = molecular target: Ras-related C3 botulinum toxin substrate 1 (Mus musculus) (UniProt P63001); experiment: Inhibition of Rac1 in mouse NIH/3T3 cells assessed as reduction in Rac activator-stimulated cell adhesion measured every 5 mins for 6 hrs by xCELLigence assay; assay type: cell-based
[12] = molecular target: Ras-related protein Rab-35 (Mus musculus) (UniProt Q6PHN9); experiment: Inhibition of mouse Rab35 assessed as decrease in B-max for GTP-binding on Rac1 by mant-GTP binding kinetics real-time assay
Sequence of Ras-related protein Rab-35 (Mus musculus) (Q6PHN9 whole entry): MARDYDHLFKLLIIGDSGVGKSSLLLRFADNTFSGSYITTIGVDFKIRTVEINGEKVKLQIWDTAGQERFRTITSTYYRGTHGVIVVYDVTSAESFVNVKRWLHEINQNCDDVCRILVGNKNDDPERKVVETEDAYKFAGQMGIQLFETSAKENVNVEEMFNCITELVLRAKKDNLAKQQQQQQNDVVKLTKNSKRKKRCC

[13] = molecular target: Ras-related C3 botulinum toxin substrate 1 (Mus musculus) (UniProt P63001); experiment: Inhibition of Rac1 in mouse NIH/3T3 cells assessed as reduction in Rac activator-stimulated membrane ruffling; assay type: cell-based
[14] = molecular target: ADP-ribosylation factor 6 (Mus musculus) (UniProt P62331); experiment: Inhibition of mouse Arf6 assessed as decrease in B-max for GTP-binding on Rac1 by mant-GTP binding kinetics real-time assay
Sequence of ADP-ribosylation factor 6 (Mus musculus) (P62331 whole entry): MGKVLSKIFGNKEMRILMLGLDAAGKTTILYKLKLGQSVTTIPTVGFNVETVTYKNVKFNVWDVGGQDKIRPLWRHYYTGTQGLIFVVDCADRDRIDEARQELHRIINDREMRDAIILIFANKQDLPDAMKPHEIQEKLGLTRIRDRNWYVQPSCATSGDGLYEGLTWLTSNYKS

[15] = molecular target: Cell division control protein 42 homolog (Mus musculus) (UniProt P60766); experiment: Binding affinity to mouse Cdc42 by SPR assay
Sequence of Cell division control protein 42 homolog (Mus musculus) (P60766 whole entry, looked up): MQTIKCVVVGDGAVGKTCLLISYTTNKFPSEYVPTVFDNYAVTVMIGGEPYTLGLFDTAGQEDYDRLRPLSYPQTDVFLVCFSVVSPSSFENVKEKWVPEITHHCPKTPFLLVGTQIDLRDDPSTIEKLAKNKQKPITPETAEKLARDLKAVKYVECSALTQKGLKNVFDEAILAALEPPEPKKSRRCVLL

[16] = molecular target: Ras-related C3 botulinum toxin substrate 1 (Mus musculus) (UniProt P63001); experiment: Binding affinity to mouse Rac1 in presence of EDTA by SPR assay

Question: With `COc1ccccc1NS(=O)(=O)c1ccc(NC(=O)CSc2ccc(C)cc2)cc1` as the compound, how does the IC50 [1] read?
Answer: Its IC50 is 1 nM.

Question: How did the IC50 [1] turn out when `COc1cccc(NS(=O)(=O)c2ccc(N)cc2)c1` was run?
Answer: Its IC50 is 1 nM.

Question: With `C=CC(=O)Nc1ccc(S(=O)(=O)Nc2cc(OC)ccc2OC)cc1` as the compound, how does the IC50 [1] read?
Answer: The IC50 was 0.1 nM.

Question: For `COc1ccc(OC)c(NS(=O)(=O)c2ccc(NC(=O)CCOc3ccc(C)cc3)cc2)c1`, which IC50 [1] is on record?
Answer: The IC50 was 1 nM.

Question: `COc1ccccc1NS(=O)(=O)c1ccc(N)cc1` was tested. Which IC50 [1] did it give?
Answer: The IC50 was 1 nM.

Question: For `COc1ccc(OC)c(NS(=O)(=O)c2ccc(NC(=O)CCSc3ccc(C)cc3)cc2)c1`, which inhibition [2] is on record?
Answer: The inhibition was “Active”.

Question: And the IC50 [1]?
Answer: The IC50 was 1 nM.

Question: What about the inhibition [3] of the same compound?
Answer: The inhibition was “Active”.

Question: And the inhibition [4]?
Answer: The inhibition was “Active”.

Question: And the Activity [5]?
Answer: Its Activity is “Active”.

Question: What about the inhibition [6] of the same compound?
Answer: The inhibition was “inactive”.

Question: What about the Activity (Mus musculus) of the same compound?
Answer: The Activity was “Active”.

Question: What about the inhibition [7] of the same compound?
Answer: Its inhibition is “Active”.

Question: And the inhibition [8]?
Answer: Its inhibition is “Active”.

Question: And the Activity [9]?
Answer: The Activity was “inactive”.

Question: What about the inhibition [10] of the same compound?
Answer: Its inhibition is “inactive”.

Question: And the inhibition [11]?
Answer: The inhibition was “Active”.

Question: What about the inhibition [12] of the same compound?
Answer: The inhibition was “inactive”.

Question: What about the inhibition [13] of the same compound?
Answer: Its inhibition is “Dose-dependent effect”.

Question: What about the inhibition [14] of the same compound?
Answer: Its inhibition is “inactive”.

Question: What about the Activity [15] of the same compound?
Answer: The Activity was “inactive”.

Question: What about the Activity [16] of the same compound?
Answer: The Activity was “Active”.

Question: How did the IC50 [1] turn out when `COc1ccccc1NS(=O)(=O)c1ccc(NC(=O)CCSc2ccc(C)cc2)cc1` was run?
Answer: The IC50 was 1 nM.

Question: What does the source list for `CCN(CC)CCCC(C)Nc1nc(C)cc(Nc2ccc3nc(C)cc(N)c3c2)n1` (centres undefined)?
Answer: inhibition [3]: Active; inhibition [7]: Active; inhibition [11]: Active; inhibition [13]: Dose-dependent effect

Question: `COc1ccccc1NS(=O)(=O)c1ccc([N+](=O)[O-])cc1` was tested. Which IC50 [1] did it give?
Answer: Its IC50 is 1 nM.

Question: Which IC50 [1] does the source give for `COc1ccc(NS(=O)(=O)c2ccc(NC(=O)CCSc3ccc(C)cc3)cc2)c(OC)c1` here?
Answer: Its IC50 is 30 nM.
